Measurements reported in patent publication US20230357222A1, “SELECTIVE SMALL MOLECULE DEGRADERS OF CEREBLON” (DANA-FARBER CANCER INSTITUTE, INC., priority 2020, published 2023).

What was measured:
Type in all cases: cell-based
cereblon (CRBN) [1] = target: T1, cereblon (CRBN) (Homo sapiens, UniProt Q96SW2); assay: CRBN degradation in MM1.s cells, 4-h dose titration, immunoblot; details: 4-h dose titration treatment
T1 construct: endogenous in cells; host or cells: MM1.s cells (also HEK293T, MOLT4, SK-N-DZ and Kelly cells for compound 1)
Description: (§1) MM1.S cells were generously provided by James Bradner (Dana-Farber Cancer Institute (DFCI), Boston, MA). MM1.S cells were cultured in Roswell Park Memorial Institute (RPMI)-1640 media containing L-glutamine, supplemented with 10% fetal bovine serum (FBS) and 1% penicillin/streptomycin. Mycoplasma testing was performed on a monthly basis and all lines were negative.
(§2) Cells were washed with ice cold phosphate-buffered saline (PBS) before being lysed with Cell Lysis Buffer (Cell Signaling Technology®) supplemented with protease and phosphatase inhibitor cocktails (Roche®) at 4° C. for 15 minutes. The cell lysate was vortexed before being centrifuged at 14,000×g for 20 min at 4° C. Protein in cell lysate was quantified by bicinchoninic acid (BCA) assay (Pierce™). Primary antibodies used in this study include CDK9 (Cell Signaling Technology®, 2316S), CKlα (Abcam®, ab206652), CRBN (Novus Biologicals®, NBP1-91810), eRF3/GSPT1 (Abcam®, ab49878), IKZF1 (Ikaros) (Cell Signaling Technology®, 5443S), IKZF3 (Aiolos) (Cell Signaling Technology®, 15103S), VHL (Cell Signaling Technology®, 68547S), and vinculin (Abcam®, ab130007). Blot quantification was performed using Image Studio 4.0 software, normalizing to loading controls.

cereblon (CRBN) [2] = target: T1, cereblon (CRBN); assay: Proteomic analysis (TMT LC-MS3) of protein abundance in cells; details: MM1.s cells, 50 nM, 6 hours
Description: MM1.s cells were treated with DMSO or 50 nM of bispecific compound 1 or 6 in biological triplicates for 6 hours and cells harvested by centrifugation. Lysis buffer (8 M Urea, 50 mM NaCl, 50 mM 4-(2hydroxyethyl)-1-piperazineethanesulfonic acid (EPPS) pH 8.5, Protease and Phosphatase inhibitors from Roche®) was added to the cell pellets and homogenized by 20 passes through a 21 gauge (1.25 in. long) needle to achieve a cell lysate with a protein concentration between 1-4 mg mL-1. A micro-BCA assay (Pierce™) was used to determine the final protein concentration in the cell lysate. 200 μg of protein for each sample were reduced and alkylated as described in Donovan et al., Elife 7:e38430 (2018).
Proteins were precipitated using methanol/chloroform. In brief, four volumes of methanol were added to the cell lysate, followed by one volume of chloroform, and finally three volumes of water. […]
Anhydrous ACN was added to each peptide sample to a final concentration of 30% v/v, and labeling was induced with the addition of TMT reagent to each sample at a ratio of 1:4 peptide:TMT label. […] The sample channels were combined at a 1:1:1:1:1:1:1:1:1:1 ratio, desalted using C18 solid phase extraction cartridges (Waters®) and analyzed by LC-MS for channel ratio comparison. Samples were then combined using the adjusted volumes determined in the channel ratio analysis and dried down in a speed vacuum. […]

cereblon (CRBN) [3] = target: T1, cereblon (CRBN); assay: CRBN degradation in MM1.s cells, time course experiment, immunoblot; details: 50-nM dose
Description: as §1, §2
The experimental protocol is set forth above in Example 7.

T1 sequence (Q96SW2 whole entry): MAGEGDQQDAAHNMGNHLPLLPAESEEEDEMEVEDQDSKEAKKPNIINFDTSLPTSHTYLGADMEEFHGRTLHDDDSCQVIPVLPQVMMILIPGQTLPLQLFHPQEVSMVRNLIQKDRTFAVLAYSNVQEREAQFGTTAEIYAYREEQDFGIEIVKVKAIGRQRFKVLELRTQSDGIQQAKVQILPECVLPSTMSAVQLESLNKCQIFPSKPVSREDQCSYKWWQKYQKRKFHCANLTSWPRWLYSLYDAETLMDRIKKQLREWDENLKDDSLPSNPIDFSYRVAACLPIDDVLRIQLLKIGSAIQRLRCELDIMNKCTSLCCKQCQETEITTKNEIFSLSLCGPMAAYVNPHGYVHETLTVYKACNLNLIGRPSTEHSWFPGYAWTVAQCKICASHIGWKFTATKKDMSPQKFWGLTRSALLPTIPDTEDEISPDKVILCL

Structure (SMILES)	CRBN degrader potency and selectivity (in words) (cereblon (CRBN) [1])	concentration at which virtually complete degradation of CRBN is seen (cereblon (CRBN) [1])	proteins significantly degraded by proteomic analysis (selectivity) (cereblon (CRBN) [2])	earliest time at which CRBN degradation is seen after treatment (cereblon (CRBN) [3])
Cc1ncsc1-c1ccc(CNC(=O)[C@@H]2C[C@@H](O)CN2C(=O)[C@@H](NC(=O)CCCCCCCCCCOc2cccc3c2C(=O)N(C2CCC(=O)NC2=O)C3=O)C(C)(C)C)cc1 (stereo partly drawn) [Compound 1, (2S,4R)-1-((2S)-2-(11-((2-(2,6-dioxopiperidin-3-yl)-1,3-dioxoisoindolin-4-yl)oxy)undecanamido)-3,3-dimethylbutanoyl)-4-hydroxy-N-(4-(4-methylthiazol-5-yl)benzyl)pyrrolidine-2-carboxamide]	highly potent and selective degraders of CRBN	around 50 nM	only CRBN was significantly degraded	1 h
Cc1ncsc1-c1ccc([C@H](C)NC(=O)[C@@H]2C[C@@H](O)CN2C(=O)[C@@H](NC(=O)CCCCCCCCCCOc2cccc3c2C(=O)N(C2CCC(=O)NC2=O)C3=O)C(C)(C)C)cc1 (stereo partly drawn) [Compound 6, (2S,4R)-1-((2S)-2-(11-((2-(2,6-Dioxopiperidin-3-Yl)-1,3-Dioxoisoindolin-4-Yl)Oxy)Undecanamido)-3,3-Dimethylbutanoyl)-4-Hydroxy-N-((S)-1-(4-(4-Methylthiazol-5-Yl)Phenyl)Ethyl)Pyrrolidine-2-Carboxamide]	highly potent and selective degraders of CRBN	around 50 nM	only CRBN was significantly degraded	1 h
